Test results: article PMC6155273, “Antiprotozoal Activity of Triazole Derivatives of Dehydroabietic Acid and Oleanolic Acid” (Molecules : A Journal of Synthetic Chemistry and Natural …, 2017)
In brackets after ≈: the same amount, converted by molar mass. Read-outs that look alike come from different tables or passages of the source.

Experiments:
[1] = Cytotoxicity on NCTC-Clone 929 fibroblasts (resazurin); type: cell-based; conditions: mouse
Description: The cell line used was NCTC-Clone 929, which was grown in Minimal Essential Medium (Sigma) supplemented with 10% heat-inactivated FBS, penicillin G (100 U/mL), and streptomycin (100 µg/mL). Cell cultures were maintained at 37 °C in a humidified 5% CO2 atmosphere. The procedure for cell viability measurement was evaluated with resazurin by a colorimetric method. The cells were plated in 96-microtiter plates at 3 × 10^4 cells per well in a 100 µL growth medium. The cells were grown overnight at 37 °C, 5% CO2. Thereafter, the medium was removed and the compounds were added in a 200 µL medium for 24 h. After incubation, 20 µL of a 2 mM resazurin solution was added to each well. The plates were incubated for 3 h to allow optimal oxidation-reduction. The reduction of resazurin was determined by dual wavelength absorbance measurement at 490 and 595 nm. Background was subtracted. Each concentration was assayed three times. Medium and drug controls were used in each test as blanks.

[2] = system: L. infantum promastigotes; assay: Leishmanicidal activity on L. infantum promastigotes (resazurin); type: cell-based, Leishmania infantum; conditions: Leishmania infantum, 48 h, read-out: Leishmanicidal Activity on Promastigotes, L. infantum, IC50
Description: (§1) Culture of L. braziliensis (MHOM/BR/75/M2904), and L. infantum (MHOM/FR/91/LEM2259V) was obtained from the Facultad de Farmacia (Universidad Complutense de, Madrid, Spain). The maintenance of the strains, the form of cultivation, and the isolation of shape promastigota were performed following the procedures described by Roldos et al.. The promastigotes were grown at 22 °C in Schneider’s Drosophila medium supplemented with 20% FBS. The assay was performed using a modification of a previous method. Promastigotes (2 × 10^6 parasites/well) were cultured in 96-well plastic plates. Compounds were dissolved in dimethylsulfoxide (DMSO). Different dilutions of the compounds with a final volume up to 200 µL were added. After 48 h at 26 °C, 20 µL of a 2 mM resazurin solution was added, and the oxidation-reduction was quantified at 570 and 600 nm. The solution of resazurin was prepared at 2.5 mM in phosphate buffered solution (PBS), pH 7.4, and filtered through 0.22 µm prior to use. All tests were carried out in triplicate. Resazurin sodium salt was obtained from Sigma-Aldrich (St. Louis, MO, USA) and stored at 4 °C protected from light. The efficacy of each compound was estimated by calculating the IC50 values.

T. cruzi epimastigotes = assay: Antiepimastigote activity, T. cruzi CL-B5 lacZ (CPRG); type: cell-based, Trypanosoma cruzi; conditions: Trypanosoma cruzi, clone CL-B5, 72 h
Description: For in vitro studies of T. cruzi, the clone CL-B5 was used (donated by Faculty of Pharmacy, Complutense University, Madrid, Spain). Parasites were stably transfected with the Escherichia coli β-galactosidase gene (lacZ). Epimastigotes were grown at 28 °C in liver infusion tryptose broth (Difco, Detroit, MI, USA) with 10% fetal bovine serum (FBS) (Gibco, Carlsbad, CA, USA), penicillin (Ern S.A., Barcelona, Spain), and streptomycin (Reig Jofré S.A., Barcelona, Spain), as described previously, and harvested during the exponential growth phase. Briefly, the screening assay was performed in 96-well microplates (Sarstedt, Inc., Newton, NC, USA) with cultures that had not reached the stationary phase. Epimastigotes were seeded at 2 × 10^5 parasites/mL in 200 µL growth media. The plates were then incubated with the respective compounds at 28 °C for 72 h; afterwards, 50 µL of chlorophenol red-β-D-galactopyranoside (CPRG) solution was added, resulting in a final concentration of 200 µM. The plates were incubated at 37 °C for an additional 4 h and then read at 595 nm. Each concentration was tested in triplicate. The efficacy of each compound was estimated by calculating the IC50 values. These values were calculated by the sigmoidal dose–response curve adjustment using the statistical software program Graph-Pad Prims 3.0 (GraphPhad, San Diego, CA, USA). Benznidazole was used as the reference drug.

[3] = system: L. braziliensis promastigotes; assay: Leishmanicidal activity on L. braziliensis promastigotes (resazurin); type: cell-based, Leishmania braziliensis; conditions: Leishmania braziliensis, 48 h, read-out: Leishmanicidal Activity on Promastigotes, L. braziliensis, IC50
Description: as §1

CC(C)c1ccc2c(c1)CCC1[C@](C)(C(=O)OCCc3cn(CSc4ccccc4)nn3)CCC[C@]21C (some centres unmarked) [Compound 4]
IC50 at 24 h [1]: 189 µg/mL (≈ 365 µM) | IC50 ([2]; promastigotes): 64 µg/mL (≈ 124 µM) | IC50 (T. cruzi epimastigotes): 61 µg/mL (≈ 118 µM) | IC50 ([3]; promastigotes): 64 µg/mL (≈ 124 µM)

COc1ccc(-n2cc(CCC(=O)O[C@H]3CC[C@@]4(C)C(CC[C@]5(C)C4CC=C4[C@@H]6CC(C)(C)CC[C@]6(C(=O)O)CC[C@]45C)C3(C)C)nn2)cc1 (some centres unmarked) [Compound 23]
IC50 at 24 h [1]: > 256 µg/mL | IC50 [2]: > 256 µg/mL | IC50 (T. cruzi epimastigotes): > 256 µg/mL | IC50 [3]: > 256 µg/mL

Cc1ccc(S(=O)(=O)n2cc(CCC(=O)O[C@H]3CC[C@@]4(C)C(CC[C@]5(C)C4CC=C4[C@@H]6CC(C)(C)CC[C@]6(C(=O)O)CC[C@]45C)C3(C)C)nn2)cc1 (some centres unmarked) [Compound 27]
IC50 at 24 h [1]: > 256 µg/mL | IC50 ([2]; promastigotes): > 256 µg/mL | IC50 (T. cruzi epimastigotes): 43 µg/mL (≈ 58.6 µM) | IC50 ([3]; promastigotes): > 256 µg/mL

CC1(C)CC[C@]2(C(=O)O)CC[C@]3(C)C(=CCC4[C@@]5(C)CC[C@H](OC(=O)CCc6cn(-c7ccccc7)nn6)C(C)(C)C5CC[C@]43C)[C@@H]2C1 (some centres unmarked) [Compound 21]
IC50 at 24 h [1]: > 256 µg/mL | IC50 [2]: > 256 µg/mL | IC50 (T. cruzi epimastigotes): > 256 µg/mL | IC50 [3]: > 256 µg/mL

N=C(N)c1ccc(OCCCCCOc2ccc(C(=N)N)cc2)cc1 [Pentamidine, reference compound]
IC50 ([2]; promastigotes): 3.3 µg/mL (≈ 9.69 µM) | IC50 ([3]; promastigotes): 3.3 µg/mL (≈ 9.69 µM)

COC(=O)[C@]12CCC(C)(C)C[C@H]1C1=CCC3[C@@]4(C)CC[C@H](OC(=O)CCCc5cn(CSc6ccccc6)nn5)C(C)(C)C4CC[C@@]3(C)[C@]1(C)CC2 (some centres unmarked) [Compound 34]
IC50 [2]: > 256 µg/mL | IC50 (T. cruzi epimastigotes): > 256 µg/mL | IC50 [3]: > 256 µg/mL

C#CCCC(=O)O[C@H]1CC[C@@]2(C)C(CC[C@]3(C)C2CC=C2[C@@H]4CC(C)(C)CC[C@]4(C(=O)OC)CC[C@]23C)C1(C)C (some centres unmarked) [Compound 18]
IC50 at 24 h [1]: > 256 µg/mL | IC50 [2]: > 256 µg/mL | IC50 (T. cruzi epimastigotes): > 256 µg/mL | IC50 [3]: > 256 µg/mL

Cc1ccc(S(=O)(=O)n2cc(CCC(=O)OC[C@]3(C)CCC[C@]4(C)c5ccc(C(C)C)cc5CCC34)nn2)cc1 (some centres unmarked) [Compound 15]
IC50 at 24 h [1]: 232 µg/mL (≈ 412 µM) | IC50 ([2]; promastigotes): 53 µg/mL (≈ 94 µM) | IC50 (T. cruzi epimastigotes): 69 µg/mL (≈ 122 µM) | IC50 ([3]; promastigotes): 89 µg/mL (≈ 158 µM)

CC(C)c1ccc2c(c1)CCC1[C@](C)(COC(=O)CCCCc3cn(-c4ccccc4)nn3)CCC[C@]21C (some centres unmarked) [Compound 6]
IC50 at 24 h [1]: > 256 µg/mL | IC50 [2]: > 256 µg/mL | IC50 (T. cruzi epimastigotes): > 256 µg/mL | IC50 [3]: > 256 µg/mL

COC(=O)[C@]12CCC(C)(C)C[C@H]1C1=CCC3[C@@]4(C)CC[C@H](OC(=O)CCc5cn(CSc6ccccc6)nn5)C(C)(C)C4CC[C@@]3(C)[C@]1(C)CC2 (some centres unmarked) [Compound 30]
IC50 at 24 h [1]: > 256 µg/mL | IC50 [2]: > 256 µg/mL | IC50 (T. cruzi epimastigotes): > 256 µg/mL | IC50 [3]: > 256 µg/mL

CC(C)c1ccc2c(c1)CCC1[C@](C)(COC(=O)CCc3cn(-c4ccccc4)nn3)CCC[C@]21C (some centres unmarked) [Compound 5]
IC50 at 24 h [1]: > 256 µg/mL | IC50 ([2]; promastigotes): 193 µg/mL (≈ 397 µM) | IC50 (T. cruzi epimastigotes): 223 µg/mL (≈ 459 µM) | IC50 ([3]; promastigotes): 218 µg/mL (≈ 449 µM)

COC(=O)[C@]12CCC(C)(C)C[C@H]1C1=CCC3[C@@]4(C)CC[C@H](OC(=O)CCc5cn(S(=O)(=O)c6ccc(C)cc6)nn5)C(C)(C)C4CC[C@@]3(C)[C@]1(C)CC2 (some centres unmarked) [Compound 28]
IC50 at 24 h [1]: > 256 µg/mL | IC50 ([2]; promastigotes): > 256 µg/mL | IC50 (T. cruzi epimastigotes): 61 µg/mL (≈ 81.5 µM) | IC50 ([3]; promastigotes): > 256 µg/mL

Cc1ccc(S(=O)(=O)n2cc(CCCC(=O)O[C@H]3CC[C@@]4(C)C(CC[C@]5(C)C4CC=C4[C@@H]6CC(C)(C)CC[C@]6(C(=O)O)CC[C@]45C)C3(C)C)nn2)cc1 (some centres unmarked) [Compound 31]
IC50 at 24 h [1]: > 256 µg/mL | IC50 ([2]; promastigotes): 128 µg/mL (≈ 171 µM) | IC50 (T. cruzi epimastigotes): > 256 µg/mL | IC50 [3]: > 256 µg/mL

CC(C)c1ccc2c(c1)CCC1[C@](C)(COC(=O)CCc3cn(Cc4ccccc4)nn3)CCC[C@]21C (some centres unmarked) [Compound 7]
IC50 at 24 h [1]: > 256 µg/mL | IC50 [2]: > 256 µg/mL | IC50 (T. cruzi epimastigotes): > 256 µg/mL | IC50 [3]: > 256 µg/mL
